Measurements as given in US6569836B2, “6-O-alkyl-2-nor-2-substituted ketolide derivatives” (Abbott Laboratories, priority 1999, dated 2003).

Tests used:
Assay in all cases: In vitro antibacterial activity, agar dilution MIC
Candida albicans CCH 442 = type: cell-based; conditions: code TT, BHI agar, 35-37° C., 20-24 hours, unit assumed
Experimental: (§1) Each plate was inoculated with 1:100 (or 1:10 for slow-growing strains, such as Micrococcus and Streptococcus) dilutions of up to 32 different microorganisms, using a Steers replicator block. The inoculated plates were incubated at 35-37° C. for 20-24 hours. In addition, a control plate using BHI agar with no test compound was prepared and incubated at the beginning and end of each test. A plate containing erythromycin A was also prepared to provide test-to-test comparability. […] After incubation, each plate was visually inspected. The minimum inhibitory concentration (MIC) was defined as the lowest concentration of drug yielding no growth, a slight haze, or sparsely isolated colonies on the inoculum spot as compared to the growth control.

[1] = system: Mycobacterium smegmatis ATCC 114; type: cell-based; conditions: code UU, BHI agar, 35-37° C., 20-24 hours, unit assumed
Experimental: as §1

[2] = system: Nocardia Asteroides ATCC 99700; type: cell-based; conditions: code VV, BHI agar, 35-37° C., 20-24 hours, unit assumed
Experimental: as §1

[3] = system: Staphylococcus aureus 1775; type: cell-based; conditions: code GG, BHI agar, 35-37° C., 20-24 hours, unit assumed
Experimental: as §1

[4] = system: Staphylococcus aureus A-5177; type: cell-based; conditions: code BB, BHI agar, 35-37° C., 20-24 hours, unit assumed
Experimental: as §1

[5] = system: Staphylococcus aureus A-5278; type: cell-based; conditions: code CC, BHI agar, 35-37° C., 20-24 hours, unit assumed
Experimental: as §1

[6] = system: Staphylococcus aureus ATCC 6538P; type: cell-based; conditions: code AA, BHI agar, 35-37° C., 20-24 hours, unit assumed
Experimental: as §1

[7] = system: Staphylococcus aureus NCTC 10649M; type: cell-based; conditions: code EE, BHI agar, 35-37° C., 20-24 hours, unit assumed
Experimental: as §1

[8] = system: Staphylococcus epidermidis 3519; type: cell-based; conditions: code HH, BHI agar, 35-37° C., 20-24 hours, unit assumed
Experimental: as §1

[9] = system: Streptococcus Pneumonia 5649; type: cell-based; conditions: code ZA, BHI agar, 35-37° C., 20-24 hours, unit assumed
Experimental: as §1

[10] = system: Streptococcus Pneumonia ATCC 6303; type: cell-based; conditions: code XX, BHI agar, 35-37° C., 20-24 hours, unit assumed
Experimental: as §1

[11] = system: Streptococcus Pneumonia GYR 1171; type: cell-based; conditions: code YY, BHI agar, 35-37° C., 20-24 hours
Experimental: as §1

[12] = system: Streptococcus agalactiae CMX 508; type: cell-based; conditions: code KK, BHI agar, 35-37° C., 20-24 hours, unit assumed
Experimental: as §1

[13] = system: Streptococcus bovis A-5169; type: cell-based; conditions: code JJ, BHI agar, 35-37° C., 20-24 hours, unit assumed
Experimental: as §1

[14] = system: Streptococcus pyogenes 930; type: cell-based; conditions: code MM, BHI agar, 35-37° C., 20-24 hours, unit assumed
Experimental: as §1

[15] = system: Streptococcus pyogenes EES61; type: cell-based; conditions: code LL, BHI agar, 35-37° C., 20-24 hours, unit assumed
Experimental: as §1

[16] = system: Streptococcus pyogenes PIU 2548; type: cell-based; conditions: code NN, BHI agar, 35-37° C., 20-24 hours, unit assumed
Experimental: as §1

[17] = system: Micrococcusluteus ATCC 4698; type: cell-based, Micrococcus luteus; conditions: code PP, BHI agar, 35-37° C., 20-24 hours, unit assumed
Experimental: as §1

Escherichiacoli JUHL = type: cell-based, Escherichia coli; conditions: code QQ, BHI agar, 35-37° C., 20-24 hours, unit assumed
Experimental: as §1

Escherichiacoli SS = type: cell-based, Escherichia coli; conditions: code RR, BHI agar, 35-37° C., 20-24 hours, unit assumed
Experimental: as §1

[18] = system: Haemophilislnfluenzae DILL AMP R; type: cell-based, Haemophilus influenzae; conditions: code WW, BHI agar, 35-37° C., 20-24 hours, unit assumed
Experimental: Representative compounds of the present invention were assayed in vitro for antibacterial activity as follows: twelve petri dishes containing successive aqueous dilutions of the test compound mixed with 10 mL of sterilized Brain Heart Infusion (BHI) agar (Difco 0418-01-5) were prepared. Each plate was inoculated with 1:100 (or 1:10 for slow-growing strains, such as Micrococcus and Streptococcus) dilutions of up to 32 different microorganisms, using a Steers replicator block. The inoculated plates were incubated at 35-37° C. for 20-24 hours. In addition, a control plate using BHI agar with no test compound was prepared and incubated at the beginning and end of each test.
A plate containing erythromycin A was also prepared to provide test-to-test comparability.
After incubation, each plate was visually inspected. The minimum inhibitory concentration (MIC) was defined as the lowest concentration of drug yielding no growth, a slight haze, or sparsely isolated colonies on the inoculum spot as compared to the growth control.

[19] = system: Streptococcus Pneumonia 5979; type: cell-based; conditions: code ZZ, BHI agar, 35-37° C., 20-24 hours, unit assumed
Experimental: as §1, with “test.” for “test. A plate containing erythromycin A was also prepared to provide test-to-test comparability.”

| Molecule | Antibacterial Activity (MIC's) (Candida albicans CCH 442) [µg/mL] | Antibacterial Activity (MIC's) [1] [µg/mL] | Antibacterial Activity (MIC's) [2] [µg/mL] | Antibacterial Activity (MIC's) [3] [µg/mL] | Antibacterial Activity (MIC's) [4] [µg/mL] | Antibacterial Activity (MIC's) [5] [µg/mL] | Antibacterial Activity (MIC's) [6] [µg/mL] | Antibacterial Activity (MIC's) [7] [µg/mL] | Antibacterial Activity (MIC's) [8] [µg/mL] | Antibacterial Activity (MIC's) [9] [µg/mL] | Antibacterial Activity (MIC's) [10] [µg/mL] | Antibacterial Activity (MIC's) [12] [µg/mL] | Antibacterial Activity (MIC's) [13] [µg/mL] | Antibacterial Activity (MIC's) [14] [µg/mL] | Antibacterial Activity (MIC's) [15] [µg/mL] | Antibacterial Activity (MIC's) [16] [µg/mL] | Antibacterial Activity (MIC's) [17] [µg/mL] | Antibacterial Activity (MIC's) (Escherichiacoli JUHL) [µg/mL] | Antibacterial Activity (MIC's) (Escherichiacoli SS) [µg/mL] | Antibacterial Activity (MIC's) [18] [µg/mL] | other results |
| --- | --- | --- | --- | --- | --- | --- | --- | --- | --- | --- | --- | --- | --- | --- | --- | --- | --- | --- | --- | --- | --- |
| Compound of Formula (I), R^p is Hydrogen, Y is Hydrogen, R^1 is —CH2CH(OH)CH(OH)—(3-quinolyl), R^3 is —CH2OH and R^4 is OH [Example 3] | > 100 | 3.1 | 0.05 | > 100 | 0.05 | > 100 | 0.05 | 0.1 | 0.05 | 0.25 | 0.008 | 0.01 | 0.01 | 12.5 | 0.01 | 0.1 | 0.05 | 50 | 0.2 | 2 | Antibacterial Activity (MIC's) [11]: ≦0.004; Antibacterial Activity (MIC's) [19]: 64 µg/mL |
| CC[C@H]1OC(=O)[C@H](C)[C@@H](O[C@H]2C[C@@](C)(OC)[C@@H](O)[C@H](C)O2)[C@H](C)[C@@H](O[C@@H]2O[C@H](C)C[C@H](N(C)C)[C@H]2O)[C@](C)(O)C[C@@H](C)C(=O)[C@H](C)[C@@H](O)[C@]1(C)O [Ery. A, Erythromycin A, reference compound] | > 100 | 3.1 | 0.1 | > 100 | 3.1 | > 100 | 0.2 | 0.39 | 0.39 | 16 | 0.06 | 0.05 | 0.02 | > 100 | 0.05 | 6.2 | 0.2 | > 100 | 0.78 | 4 | Antibacterial Activity (MIC's) ([11]; unit assumed): 0.06 µg/mL |
| CCC1OC(=O)CC(=O)C(C)C(OC2OC(C)CC(N(C)C)C2O)C(C)(OCC=Cc2cnc3ccccc3c2)CC(C)C(=O)C(C)C2NC(=O)OC12C (centres unmarked) [Example 2, Compound of Formula (XI), R^p is Hydrogen, Y is Hydrogen, R^2 is 3-quinolyl, R^3 is Hydrogen and R^4 is Hydrogen] | > 100 | 6.2 | 0.2 | > 100 | 0.39 | > 100 | 0.39 | 0.39 | 0.39 | 0.5 | 0.03 | 0.02 | 0.02 | 50 | 0.01 | 0.2 | 0.2 | 100 | 0.39 | 8 | Antibacterial Activity (MIC's) ([11]; unit assumed): 0.03 µg/mL; Antibacterial Activity (MIC's) [19]: 8 µg/mL |
| CCC1OC(=O)C(CC(C(=O)OC)C(=O)OC)C(=O)C(C)C(OC2OC(C)CC(N(C)C)C2O)C(C)(OCC=Cc2cnc3ccccc3c2)CC(C)C(=O)C(C)C2NC(=O)OC12C (centres unmarked) [Example 7, Compound of Formula (XI), R^p is Hydrogen Y is Hydrogen R^2 is 3-quinolyl, R^3 is —CH CH(CO2Me)2 and R^4 is Hydrogen] |  |  |  |  |  |  |  |  |  | 0.25 | 0.03 |  |  |  |  |  |  |  |  | 8 | Antibacterial Activity (MIC's) ([11]; unit assumed): 0.03 µg/mL; Antibacterial Activity (MIC's) [19]: 64 µg/mL |
| CCC1OC(=O)C(CS(=O)(=O)O)C(=O)C(C)C(OC2OC(C)CC(N(C)C)C2O)C(C)(OCC=Cc2cnc3ccccc3c2)CC(C)C(=O)C(C)C2NC(=O)OC12C (centres unmarked) [Example 6, Compound of Formula (XI), R^p is Hydrogen, Y is Hydrogen, R^2 is 3-quinolyl, R^3 is —CH2SO3H and R^4 is Hydrogen] | > 100 | 12.5 | 0.2 | > 100 | 0.78 | > 100 | 0.39 | 0.78 | 0.78 | 2 | 0.25 | 0.2 | 0.05 | 25 | 0.2 | 0.78 | 0.39 | > 100 | 3.1 | 16 | Antibacterial Activity (MIC's) ([11]; unit assumed): 0.125 µg/mL; Antibacterial Activity (MIC's) [19]: 64 µg/mL |
| C=CCC1C(=O)OC(CC)C2(C)OC(=O)NC2C(C)C(=O)C(C)CC(C)(OCC=Cc2cnc3ccccc3c2)C(OC2OC(C)CC(N(C)C)C2O)C(C)C1=O (centres unmarked) [Example 5, Compound of Formula (XI), R^p is Hydrogen, Y is Hydrogen, R^2 is 3-quinolyl R^3 is —CH2CH═CH2 and R^4 is hydrogen] | > 100 | > 100 | > 100 | > 100 | > 100 | > 100 | > 100 | > 100 | > 100 | > 128 | 32 | 100 | 25 | > 100 | 100 | > 100 | > 100 | > 100 | > 100 |  | Antibacterial Activity (MIC's) ([11]; unit assumed): 32 µg/mL; Antibacterial Activity (MIC's) [19]: > 128 µg/mL |
